Experimental findings from PubChem BioAssay AID328 (DTP/NCI, 2004) are described below.

For this test, the system named is BDF1 mice, P388 leukemia ip, median survival T/C. The test can be described thus: NCI In Vivo Anticancer Drug Screen. Data for tumor model P388 Leukemia (intraperitoneal) in B6D2F1 (BDF1) mice. Conditions: endpoint: median survival time, higher = longer survival. The method, boiled down: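 In tumour-bearing mice, survival after compound treatment is set against the vehicle group and given as a quotient.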

Where [1] appears, read: dose: 50.0 mg/kg/injection, schedule: Q01DX009 (ip), vehicle: saline with Tween-80.
[2] abbreviates: dose: 100.0 mg/kg/injection, schedule: Q04DX003 (ip), vehicle: saline with Tween-80.
[3] abbreviates: dose: 200.0 mg/kg/injection, schedule: Q04DX003 (ip), vehicle: saline with Tween-80.
[4] abbreviates: dose: 100.0 mg/kg/injection, schedule: Q01DX009 (ip), vehicle: saline with Tween-80.
The mark [5] stands for this setting: dose: 200.0 mg/kg/injection, schedule: Q01DX009 (ip), vehicle: saline with Tween-80.
[6] abbreviates: dose: 50.0 mg/kg/injection, schedule: Q04DX003 (ip), vehicle: saline with Tween-80.
Where [7] appears, read: dose: 200.0 mg/kg/injection, schedule: Q01DX009 (ip), vehicle: Klucel (hydroxypropylcellulose) (HPC).
The mark [8] stands for this setting: dose: 100.0 mg/kg/injection, schedule: Q01DX009 (ip), vehicle: Klucel (hydroxypropylcellulose) (HPC).
Where [9] appears, read: dose: 50.0 mg/kg/injection, schedule: Q01DX005 (ip), vehicle: saline with Tween-80.
The mark [10] stands for this setting: dose: 100.0 mg/kg/injection, schedule: Q01DX005 (ip), vehicle: saline with Tween-80.
Setting [11] is: dose: 200.0 mg/kg/injection, schedule: Q01DX005 (ip), vehicle: saline with Tween-80.

“And” between values parts separate entries of the source, which are not always exact repeats. Identical values can stand only once. Inconclusive results and toxic doses are left out.

For `CCCOP(=S)(N1CC1C)N1CC1(C)C` (stereo not drawn), the T/C (dose: 33.0 mg/kg/injection, schedule: Q01DX009 (ip), vehicle: saline with Tween-80) was 154 % of control; the T/C under setting [1] was 186 % of control; the T/C (dose: 75.0 mg/kg/injection, schedule: Q01DX009 (ip), vehicle: saline with Tween-80) is 190 % of control; the T/C under setting [2] was 159 % of control and 166 % of control; the T/C (dose: 150.0 mg/kg/injection, schedule: Q04DX003 (ip), vehicle: saline with Tween-80) is 208 % of control; the T/C under setting [3] is 154 % of control.
As to `CSc1ncc(C)c[n+]1-c1ccccc1`, the T/C is 106 % of control (dose: 50.0 mg/kg/injection, schedule: Q04DX002 (ip), vehicle: saline with Tween-80) and 107 % of control (dose: 100.0 mg/kg/injection, schedule: Q04DX002 (ip), vehicle: saline with Tween-80).
With `Oc1ccccc1-c1nnc2n1N=C(c1ccc(-c3ccccc3)cc1)CS2`, the T/C reads like this: under setting [1], 98 % of control; under setting [4], 98 % of control; under setting [5], 92 % of control.
On to `COCC1CCSC1=O` (stereo not drawn), for which the T/C is, setting by setting: (dose: 100.0 mg/kg/injection, schedule: Q01DX001 (ip), vehicle: saline with Tween-80) 102 % of control; (dose: 200.0 mg/kg/injection, schedule: Q01DX001 (ip), vehicle: saline with Tween-80) 102 % of control; (dose: 400.0 mg/kg/injection, schedule: Q01DX001 (ip), vehicle: saline with Tween-80) 93 % of control.
Regarding `CCCCCCCCC(=O)N(C)OC`, the T/C was 104 % of control (dose: 25.0 mg/kg/injection, schedule: Q04DX003 (ip), vehicle: saline with Tween-80); 100 % of control under setting [6]; 100 % of control under setting [2].
Take `CC(=O)c1c(C)c([N+](=O)[O-])c(C(C)(C)C)c([N+](=O)[O-])c1C`: the T/C was 91 % of control and 100 % of control under setting [7]; 100 % of control and 123 % of control (dose: 400.0 mg/kg/injection, schedule: Q01DX009 (ip), vehicle: Klucel (hydroxypropylcellulose) (HPC)).
Regarding `Cc1cc(N(CCC(=O)O)CCC(=O)O)ccc1/C=C/c1ccc2cc(Cl)ccc2[n+]1C`, the T/C is, setting by setting: (dose: 12.5 mg/kg/injection, schedule: Q01DX001 (ip), vehicle: saline with Tween-80) 96 % of control; (dose: 25.0 mg/kg/injection, schedule: Q01DX001 (ip), vehicle: saline with Tween-80) 96 % of control; (dose: 50.0 mg/kg/injection, schedule: Q01DX001 (ip), vehicle: saline with Tween-80) 94 % of control.
As to `O=C(O)/C=C/c1cc2c(cc1[N+](=O)[O-])OCO2`, the T/C reads like this: under setting [8], 88 % of control; (dose: 100.0 mg/kg/injection, schedule: Q04DX003 (ip), vehicle: Klucel (hydroxypropylcellulose) (HPC)) 91 % of control; under setting [7], 96 % of control; (dose: 200.0 mg/kg/injection, schedule: Q04DX003 (ip), vehicle: Klucel (hydroxypropylcellulose) (HPC)) 95 % of control; (dose: 400.0 mg/kg/injection, schedule: Q04DX003 (ip), vehicle: Klucel (hydroxypropylcellulose) (HPC)) 87 % of control.
As to `NC(N)=NCCNC(=O)C1CCC(N)C1` (stereo not drawn), the T/C runs as follows: (dose: 0.08 mg/kg/injection, schedule: Q01DX009 (ip), vehicle: saline) 97 % of control; (dose: 0.16 mg/kg/injection, schedule: Q01DX009 (ip), vehicle: saline) 97 % of control; (dose: 0.32 mg/kg/injection, schedule: Q01DX009 (ip), vehicle: saline) 99 % of control; (dose: 0.63 mg/kg/injection, schedule: Q01DX009 (ip), vehicle: saline) 100 % of control.
Take `CC(NC(=O)C(N)CSC(c1ccccc1)(c1ccccc1)c1ccccc1)C(=O)O` (stereo not drawn): the T/C (dose: 88.0 mg/kg/injection, schedule: Q04DX003 (ip), vehicle: saline with Tween-80) was 113 % of control; the T/C (dose: 88.0 mg/kg/injection, schedule: Q04DX003 (ip), vehicle: saline) was 122 % of control; the T/C under setting [3] was 195 % of control.
Turning to `N#CC(=C=[N-])[n+]1ccccc1`, the T/C by setting is: (dose: 3.12 mg/kg/injection, schedule: Q01DX009 (ip), vehicle: Klucel (hydroxypropylcellulose) (HPC)) 110 % of control; (dose: 6.25 mg/kg/injection, schedule: Q01DX009 (ip), vehicle: Klucel (hydroxypropylcellulose) (HPC)) 110 % of control; (dose: 12.5 mg/kg/injection, schedule: Q01DX009 (ip), vehicle: Klucel (hydroxypropylcellulose) (HPC)) 100 % of control; (dose: 18.0 mg/kg/injection, schedule: Q01DX009 (ip), vehicle: Klucel (hydroxypropylcellulose) (HPC)) 100 % of control; (dose: 28.0 mg/kg/injection, schedule: Q01DX009 (ip), vehicle: Klucel (hydroxypropylcellulose) (HPC)) 115 % of control.
Consider `CC(C)Cn1c(Cl)c(/C=N\Nc2ccccc2[N+](=O)[O-])c2ccccc21`, for which the T/C was 92 % of control (dose: 100.0 mg/kg/injection, schedule: Q04DX002 (ip), vehicle: Klucel (hydroxypropylcellulose) (HPC)) and 99 % of control (dose: 200.0 mg/kg/injection, schedule: Q04DX002 (ip), vehicle: Klucel (hydroxypropylcellulose) (HPC)).
On to `CC(=O)[O][Pb]([CH2]C(C)C)([CH2]C(C)C)[CH2]C(C)C`, for which the T/C reads like this: (dose: 0.75 mg/kg/injection, schedule: Q01DX009 (ip), vehicle: Klucel (hydroxypropylcellulose) (HPC)) 107 % of control; (dose: 1.5 mg/kg/injection, schedule: Q01DX009 (ip), vehicle: Klucel (hydroxypropylcellulose) (HPC)) 109 % of control; (dose: 3.0 mg/kg/injection, schedule: Q01DX009 (ip), vehicle: Klucel (hydroxypropylcellulose) (HPC)) 105 % of control; (dose: 6.0 mg/kg/injection, schedule: Q01DX009 (ip), vehicle: Klucel (hydroxypropylcellulose) (HPC)) 107 % of control; (dose: 12.0 mg/kg/injection, schedule: Q01DX009 (ip), vehicle: Klucel (hydroxypropylcellulose) (HPC)) 107 % of control.
Turning to `CC1(C)OC2(C)CCC1C(=O)C2N1CCCCC1` (stereo not drawn), the T/C runs as follows: under setting [9], 105 % of control; under setting [10], 95 % of control; under setting [11], 101 % of control.
As to `CCCCCCCCN(c1ccc(I)cc1)S(=O)(=O)c1ccc(C)cc1`, the T/C reads like this: under setting [6], 111 % of control; under setting [2], 111 % of control.
Take `C=C(C)C(=O)OC1CCCCC1`: the T/C is 111 % of control (dose: 100.0 mg/kg/injection, schedule: Q01DX009 (ip), vehicle: saline); 100 % of control (dose: 200.0 mg/kg/injection, schedule: Q01DX009 (ip), vehicle: saline); 117 % of control (dose: 400.0 mg/kg/injection, schedule: Q01DX009 (ip), vehicle: saline).
On to `CC(C)c1ncc([N+](=O)[O-])n1C`, for which the T/C runs as follows: under setting [4], 100 % of control; under setting [5], 87 % of control; (dose: 400.0 mg/kg/injection, schedule: Q01DX009 (ip), vehicle: saline with Tween-80) 100 % of control.
As to `COc1cc[n+]([O-])cc1`, the T/C (dose: 100.0 mg/kg/injection, schedule: Q04DX003 (ip), vehicle: saline) is 95 % of control; the T/C (dose: 200.0 mg/kg/injection, schedule: Q04DX003 (ip), vehicle: saline) is 95 % of control; the T/C (dose: 400.0 mg/kg/injection, schedule: Q04DX003 (ip), vehicle: saline) is 100 % of control.
As to `N#CC1=C(N)NC(=O)C(C(N)=O)C1c1ccccc1Cl` (stereo not drawn), the T/C under setting [9] is 89 % of control, the T/C under setting [10] was 92 % of control and the T/C under setting [11] is 92 % of control.
Take `N/C(=N\OC(=O)NC(Cl)=C(Cl)Cl)c1ccc(Cl)cc1`: the T/C under setting [9] is 92 % of control and the T/C under setting [10] is 114 % of control.
For the compound `c1ccc2c(NCCCCCCNc3c4ccccc4nc4ccccc34)c3ccccc3nc2c1`, the T/C is, setting by setting: (dose: 0.31 mg/kg/injection, schedule: Q01DX009 (ip), vehicle: lactic acid) 110 % of control; (dose: 0.62 mg/kg/injection, schedule: Q01DX009 (ip), vehicle: lactic acid) 123 % of control; (dose: 1.25 mg/kg/injection, schedule: Q01DX009 (ip), vehicle: lactic acid) 163 % of control; (dose: 2.5 mg/kg/injection, schedule: Q01DX009 (ip), vehicle: lactic acid) 180 % of control; (dose: 5.0 mg/kg/injection, schedule: Q01DX009 (ip), vehicle: lactic acid) 178 % of control.
As for `CC(C)=NOC(=O)Nc1ccc(Cl)cc1`, the T/C was 111 % of control (dose: 25.0 mg/kg/injection, schedule: Q01DX009 (ip), vehicle: Klucel (hydroxypropylcellulose) (HPC)); 118 % of control (dose: 50.0 mg/kg/injection, schedule: Q01DX009 (ip), vehicle: Klucel (hydroxypropylcellulose) (HPC)); 124 % of control under setting [8].
